Results as given in patent publication US20220127297A1, “Novel Antibacterial 3"-Derivatives Of 4,6-Disubstituted 2,5-Dideoxystreptamine Aminoglycoside Antibiotics” (AGILeBiotics B.V., priority 2018, published 2022).
Values after ≈ are worked out from the molar mass of the structure shown.

Legend:
[1] = system: E. coli (AAC(6′)Ie-APH(2″)Ia); test: MIC 50, broth micro-dilution, E. coli expressing AAC(6′)Ie-APH(2″)Ia; assay type: cell-based, Escherichia coli
Summary of the method: (§1)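 Broth microdilution in Mueller Hinton Broth 2, 18 h, 37° C, 900 rpm. Host: E. coli ATCC 25922 transformed with the enzyme plasmid, KanaA-selected. Inoculum OD 0.1; compound 64 μM-31.3 nM, 2-fold series, triplicate. Readout OD600; MIC50 = half-max growth.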

E. coli (AAC(3)IV) = test: MIC 50, broth micro-dilution, E. coli expressing AAC(3)IV; assay type: cell-based, Escherichia coli
Summary of the method: as §1

[2] = Escherichia coli, ATCC25922, ATCC25922 harboring plasmid encoding AAC(6′)Ie-APH(2″)Ia
[3] = Escherichia coli, ATCC25922, ATCC25922 harboring plasmid encoding AAC(3)IV
[4] = ATCC25922 harboring plasmid encoding AAC(6′)Ie-APH(2″)Ia
[5] = ATCC25922 harboring plasmid encoding AAC(3)IV

Row | Compound | MIC50 [1, 2] [µM] | MIC50 (E. coli (AAC(3)IV); [3]) [µM] | MIC50 [1, 4] [µM] | MIC50 (E. coli (AAC(3)IV); [5]) [µM]
1 | N=C(NC[C@@H]1CNCCO1)NC1[C@@H](O)C(OC2[C@@H](F)[C@H](O[C@H]3OC(CN)[C@@H](O)CC3N)C(N)C[C@H]2NC(=O)[C@@H](O)CCN)O[C@H](CO)[C@H]1O (stereo partly drawn) [ABX5040, Tobra-AHB-F-Gua (S) morpholin-2-yl methyl] | 0.25 (≈ 0.178 µg/mL) | 1 (≈ 0.712 µg/mL) |  | 
2 | N=C(N)N[C@@H]1[C@@H](O)[C@@H](O[C@@H]2[C@@H](O)[C@H](O[C@H]3O[C@H](CN)[C@@H](O)[C@@H](O)[C@H]3N)[C@@H](N)C[C@H]2NC(=O)[C@@H](O)CCN)O[C@H](CO)[C@H]1O [ABX4005, 3′Epi-KanaB-AHB-Gua] |  |  | 8 (≈ 5.01 µg/mL) | 16 (≈ 10 µg/mL)
3 | NCCC(O)C(=O)NC1CC(N)C(OC2OC(CN)C(O)C(O)C2N)C(O)C1OC1OC(CO)C(O)C(N)C1O (stereo not shown) [ABX4001, KanaB-AHB] |  |  | 4 to 8 | 4 (≈ 2.34 µg/mL)
4 | N=C(NCc1cnc[nH]1)NC1[C@@H](O)C(OC2[C@@H](F)[C@H](O[C@H]3OC(CN)[C@@H](O)CC3N)C(N)C[C@H]2NC(=O)[C@@H](O)CCN)O[C@H](CO)[C@H]1O (stereo partly shown) [ABX5050, Tobra-AHB-F-Gua imidazol-5-yl methyl] | 1 (≈ 0.693 µg/mL) | 2 to 4 (≈ 1.39 to 2.77 µg/mL) |  | 
5 | N=C(NCCCO)NC1[C@@H](O)C(OC2[C@@H](F)[C@H](O[C@H]3OC(CN)[C@@H](O)CC3N)C(N)C[C@H]2NC(=O)[C@@H](O)CCN)O[C@H](CO)[C@H]1O (stereo partly shown) [ABX5041, Tobra-AHB-F-Gua 3-hydroxy-propyl] | 0.5 (≈ 0.335 µg/mL) | 2 (≈ 1.34 µg/mL) |  | 
6 | N=C(N)NC1[C@@H](O)C(OC2[C@@H](F)[C@H](O[C@H]3OC(CN)[C@@H](O)[C@H](O)C3O)C(N)C[C@H]2NC(=O)[C@@H](O)CCN)O[C@H](CO)[C@H]1O (stereo partly drawn) [ABX3003, 3′epi-KanaA-AHB-F-Gua] | 2 (≈ 1.26 µg/mL) | 4 (≈ 2.52 µg/mL) |  | 
7 | NCC[C@H](O)C(=O)N[C@@H]1CC(N)[C@@H](O[C@H]2OC(CN)[C@@H](O)[C@@H](O)C2N)[C@H](F)C1OC1O[C@H](CO)[C@@H](O)C(N)[C@H]1O (stereo partly drawn) [ABX4003, 3′Epi-KanaB-AHB-F] |  |  | 8 (≈ 4.69 µg/mL) | 8 to 16
8 | N=C(NCCCN)NC1[C@@H](O)C(OC2[C@@H](F)[C@H](O[C@H]3OC(CN)[C@@H](O)CC3N)C(N)C[C@H]2NC(=O)[C@@H](O)CCN)O[C@H](CO)[C@H]1O (stereo partly shown) [ABX5030, Tobra-AHB-F-Gua-3-amino-propyl] | 0.25 to 0.5 (≈ 0.167 to 0.335 µg/mL) | 0.5 (≈ 0.335 µg/mL) |  | 
9 | N=C(N)NC1C(O)[C@@H](CO)OC(OC2C(F)[C@H](O[C@H]3OC(CN)[C@@H](O)CC3N)C(N)C[C@H]2NC(=O)[C@@H](O)CCN)[C@@H]1O (stereo partly shown) [ABX5006, Tobra-AHB-F-Gua] | < 0.25 | 0.5 to 1 (≈ 0.306 to 0.613 µg/mL) |  | 
10 | N=C(NCCN)NC1C(O)[C@@H](CO)OC(OC2C(F)[C@H](O[C@H]3OC(CN)[C@@H](O)CC3N)C(N)C[C@H]2NC(=O)[C@@H](O)CCN)[C@@H]1O (stereo partly shown) [ABX5020, Tobra-AHB-F-Gua-2-amino-ethyl] | 0.5 (≈ 0.328 µg/mL) | 1 (≈ 0.656 µg/mL) |  | 
11 | N=C(N)NC1[C@@H](O)C(OC2[C@@H](O)[C@H](O[C@H]3OC(CN)[C@@H](O)CC3N)C(N)C[C@H]2NC(=O)[C@@H](O)CCN)O[C@H](CO)[C@H]1O (stereo partly shown) [ABX5005, Tobra-AHB-Gua] |  |  | 2 (≈ 1.22 µg/mL) | 1 to 2
12 | NCCC(O)C(=O)NC1CC(N)C(OC2OC(CN)C(O)C(O)C2O)C(F)C1OC1OC(CO)C(O)C(N)C1O (stereo not drawn) [ABX3005, 3′Epi-KanaA-AHB-F] |  |  | 4 (≈ 2.35 µg/mL) | 8 to 16
13 | N=C(N)NC1[C@@H](O)C(OC2[C@@H](O)[C@H](O[C@H]3OC(CN)[C@@H](O)[C@H](O)C3N)C(N)C[C@H]2NC(=O)[C@@H](O)CCN)O[C@H](CO)[C@H]1O (stereo partly shown) [ABX4009, KanaB-AHB-Gua] |  |  | 2 to 4 | 8 (≈ 5.01 µg/mL)
14 | N=C(NCC1CC1)NC1[C@@H](O)C(OC2[C@@H](F)[C@H](O[C@H]3OC(CN)[C@@H](O)CC3N)C(N)C[C@H]2NC(=O)[C@@H](O)CCN)O[C@H](CO)[C@H]1O (stereo partly shown) [ABX5027, Tobra-AHB-F-Gua cyclopropylmethyl] | 0.5 (≈ 0.333 µg/mL) | 2 (≈ 1.33 µg/mL) |  | 
15 | N=C(N)NC1[C@@H](O)C(OC2[C@@H](F)[C@H](O[C@H]3OC(CN)[C@@H](O)[C@H](O)C3N)C(N)C[C@H]2NC(=O)[C@@H](O)CCN)O[C@H](CO)[C@H]1O (stereo partly drawn) [ABX4004, 3′epi-KanaB-AHB-F-Gua] |  |  | 2 (≈ 1.26 µg/mL) | 4 (≈ 2.51 µg/mL)
16 | NCC[C@H](O)C(=O)N[C@@H]1CC(N)[C@@H](O[C@H]2OC(CN)[C@@H](O)CC2N)[C@H](O)C1OC1O[C@H](CO)[C@@H](O)C(N)[C@H]1O (stereo partly shown) [ABX5004, Tobra-AHB] |  |  | 4 (≈ 2.27 µg/mL) | 4 (≈ 2.27 µg/mL)
17 | NCC[C@H](O)C(=O)N[C@@H]1CC(N)[C@@H](O[C@H]2OC(CN)[C@@H](O)[C@@H](O)C2N)[C@H](O)C1OC1O[C@H](CO)[C@@H](O)C(N)[C@H]1O (stereo partly drawn) [ABX4002, 3′Epi-KanaB-AHB] |  |  | 4 to 8 | 8 to 16
18 | N=C(NC[C@H]1CCNC1)NC1[C@@H](O)C(OC2[C@@H](F)[C@H](O[C@H]3OC(CN)[C@@H](O)CC3N)C(N)C[C@H]2NC(=O)[C@@H](O)CCN)O[C@H](CO)[C@H]1O (stereo partly drawn) [ABX5042, Tobra-AHB-F-Gua (S) pyrrolidine-3-ylmethyl] | 0.25 (≈ 0.174 µg/mL) | 1 (≈ 0.696 µg/mL) |  | 
19 | CC(C)(C)CCNC(=N)NC1[C@@H](O)C(OC2[C@@H](F)[C@H](O[C@H]3OC(CN)[C@@H](O)CC3N)C(N)C[C@H]2NC(=O)[C@@H](O)CCN)O[C@H](CO)[C@H]1O (stereo partly shown) [ABX5025, Tobra-AHB-F-Gua 2-tBu-ethyl] | 0.5 (≈ 0.348 µg/mL) | 2 (≈ 1.39 µg/mL) |  | 
20 | NCC[C@H](O)C(=O)N[C@@H]1C[C@H](N)[C@@H](O[C@H]2O[C@H](CN)[C@@H](O)[C@@H](O)[C@H]2O)[C@H](O)[C@H]1O[C@H]1O[C@H](CO)[C@@H](O)[C@H](N)[C@H]1O [ABX3002, 3′Epi-KanaA-AHB] |  |  | 16 (≈ 9.37 µg/mL) | 32 (≈ 18.7 µg/mL)
